Experimental data published in ChEMBL document CHEMBL1148414, “Conformer- and alignment-independent model for predicting structurally diverse competitive CYP2C9 inhibitors” (J Med Chem, 2004).
pKi: −log10 of the molar value.

target: Cytochrome P450 2C9 (Homo sapiens, UniProt P11712); assay: Binding affinity towards cytochrome P450 2C9; assay type: ADME
Sequence (P11712 whole entry): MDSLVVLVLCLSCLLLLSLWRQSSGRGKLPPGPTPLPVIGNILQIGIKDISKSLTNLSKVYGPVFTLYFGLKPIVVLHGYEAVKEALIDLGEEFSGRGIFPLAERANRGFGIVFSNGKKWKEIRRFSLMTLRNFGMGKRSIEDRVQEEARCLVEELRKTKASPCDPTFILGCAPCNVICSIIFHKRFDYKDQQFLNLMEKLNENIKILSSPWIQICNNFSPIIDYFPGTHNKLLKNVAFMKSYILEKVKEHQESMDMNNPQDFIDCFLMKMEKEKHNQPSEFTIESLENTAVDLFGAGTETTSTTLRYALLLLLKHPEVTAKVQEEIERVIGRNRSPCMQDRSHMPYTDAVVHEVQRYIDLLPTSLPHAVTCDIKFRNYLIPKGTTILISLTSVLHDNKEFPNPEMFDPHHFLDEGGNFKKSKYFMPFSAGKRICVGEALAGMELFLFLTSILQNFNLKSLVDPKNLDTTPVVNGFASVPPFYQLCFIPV

Structure (SMILES)	pKi
COCCCOc1ccnc(C[S@+]([O-])c2nc3ccccc3[nH]2)c1C	4.43
O=C1NC(=O)C2(N1)c1ccccc1-c1ccccc12	3.90
CC(=O)C[C@H](c1ccccc1)C1C(=O)Oc2ccccc2C1O (some centres undefined)	4.87
Nc1c(Oc2ccc(Cl)cc2Cl)ccc(Cl)c1S(=O)(=O)O	4.70
Clc1ccc(CO[C@H](Cn2ccnc2)c2ccc(Cl)cc2Cl)c(Cl)c1	5.22
COc1ccnc(C[S@@+]([O-])c2nc3cc(OC(F)F)ccc3[nH]2)c1OC	3.84
COC(=O)c1ccc2nc([S@+]([O-])Cc3nccc(OC)c3OC)[nH]c2c1	3.85
[O-][S@@+](Cc1cc(OCC2CC2)ccn1)c1nc2ccc(F)cc2[nH]1	4.22
COC(=O)c1ccc2[nH]c([S@@+]([O-])Cc3nccc(OC)c3OC)nc2c1	4.19
[O-][S@+](Cc1cc(OCC2CC2)ccn1)c1nc2cc(F)ccc2[nH]1	4.03
CO[C@@]1(C)C[C@H](c2ccccc2)c2c(c3ccccc3oc2=O)O1	4.80
COc1ccnc(C[S@+]([O-])c2nc3cc(OC(F)F)ccc3[nH]2)c1OC	4.19
Cc1nn(C)c(C)c1NC(=O)c1ccccc1NS(=O)(=O)c1cc(Cl)sc1Cl	4.77
CO[C@]1(C)C[C@H](c2ccccc2)C2C(=O)Oc3ccccc3C2O1 (some centres undefined)	4.80
Clc1ccc(CO[C@@H](Cn2ccnc2)c2ccc(Cl)cc2Cl)c(Cl)c1 [(R)-MICONAZOLE]	5.22
COCCCOc1ccnc(C[S@@+]([O-])c2nc3ccccc3[nH]2)c1C [DEXRABEPRAZOLE]	4.44
COCCCC/C(=N\OCCN)c1ccc(C(F)(F)F)cc1 [FLUVOXAMINE]	5.07
O=c1c(O)c(-c2ccc(O)cc2)oc2cc(O)cc(O)c12 [KAEMPFEROL]	5.22
COc1ccc2nc(S(=O)(=O)Cc3ncc(C)c(OC)c3C)[nH]c2c1 [OMEPRAZOLE SULFONE]	4.46
COc1ccc2[nH]c([S+]([O-])Cc3ncc(C)c(OC)c3C)nc2c1 (centres undefined) [OMEPRAZOLE]	4.35
CCCCC1C(=O)N(c2ccccc2)N(c2ccccc2)C1=O [PHENYLBUTAZONE]	4.72
CC(=O)[C@H]1CC[C@H]2[C@@H]3CCC4=CC(=O)CC[C@]4(C)[C@H]3CC[C@]12C [PROGESTERONE]	5.26
c1ccc2[nH]c(-c3cscn3)nc2c1 [THIABENDAZOLE]	3.61
COc1cc(C(=O)NS(=O)(=O)c2ccccc2C)ccc1Cc1cn(C)c2ccc(NC(=O)OC3CCCC3)cc12 [ZAFIRLUKAST]	5.60
